Results on one compound are retold here after patent US9879036B2, “Mitochondrial aldehyde dehydrogenase-2 binding compounds and methods of use thereof” (Aviv Therapeutics, Inc., priority 2014, dated 2018).

Molecules are shown by their SMILES. Where a chain is given by its changes, count along the chain named.

One test deals with T1, ALDH2*1/*2 (Homo sapiens, UniProt P05091, E504K).
T1 construct: His-tag; made in house; host or cells: E. coli BL21 (pETDuet-1 co-expression)
T1 sequence (P05091 18-517): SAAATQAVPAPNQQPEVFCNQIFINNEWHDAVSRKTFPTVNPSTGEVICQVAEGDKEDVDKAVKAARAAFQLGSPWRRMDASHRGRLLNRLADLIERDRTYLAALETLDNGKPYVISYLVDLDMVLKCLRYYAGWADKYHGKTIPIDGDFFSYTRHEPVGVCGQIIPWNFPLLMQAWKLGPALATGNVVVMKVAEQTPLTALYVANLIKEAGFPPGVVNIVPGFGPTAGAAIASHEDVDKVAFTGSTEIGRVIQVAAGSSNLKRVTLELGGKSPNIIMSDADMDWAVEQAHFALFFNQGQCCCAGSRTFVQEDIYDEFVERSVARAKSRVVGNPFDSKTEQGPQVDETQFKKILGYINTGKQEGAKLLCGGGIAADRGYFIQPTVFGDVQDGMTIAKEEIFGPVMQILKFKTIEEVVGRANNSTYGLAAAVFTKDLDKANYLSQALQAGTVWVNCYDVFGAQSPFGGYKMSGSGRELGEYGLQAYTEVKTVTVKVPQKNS
T1 sequence (P05091 18-517 E504K): T1 sequence (P05091 18-517) with E487K
Description: ALDH2 enzymatic activity, NADH accumulation at 340 nm, acetaldehyde substrate, heterozygous form. It is filed as biochemical. The conditions noted are these: relative to baseline enzymatic activity (100%). A digest of the protocol: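 N-terminally His-tagged recombinant human ALDH2 (wild type, or E487K co-expressed with wild type for heterotetramers) was made in E. coli and Ni-purified. Activity was followed as NADH formation at 340 nm with acetaldehyde and NAD+, with compound at 20 to 0.16 μM, expressed as % of baseline activity.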

The next test deals with T2, ALDH2 (Homo sapiens, UniProt P05091).
T2 construct: His-tag (N); made in house; host or cells: E. coli BL21
T2 sequence (P05091 18-517): T1 sequence (P05091 18-517)
Description: ALDH2 activity with 20 μM of the compound (Table 3). It is filed as biochemical. Particulars: 20 μM compound. The procedure, abridged:
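Compound was tested at 20 μM. ALDH2 oxidation of acetaldehyde with NAD+ cofactor was followed spectrophotometrically as NADH accumulation at 340 nm. Activity is expressed relative to the enzyme's baseline activity, taken as 100%.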

On to `COc1ccc(CNC(=O)c2cc(-c3ncccc3CO)ccc2OCC2CC2)cc1F` [AC6], for which, at ALDH2*1/*2 (2.5 μM compound), the activity at 2.5 µM worked out at 202%. Besides, at ALDH2*1/*2 (5 μM compound), the activity at 5 µM came to 260%. Moreover, the activity at 10 µM on ALDH2*1/*2 (10 μM compound) is 281%. Further, the activity at 20 µM on ALDH2*1/*2 (20 μM compound) was 336%; on ALDH2, more than 250%.
